Laboratory results published in patent US20240376092A1 (priority 2021, published 2024).
Read-outs that look alike come from different tables or passages of the source.

How the values were obtained:
[1] = tested on: HEK293 cells expressing ΔCR PrP; test: cells; format: cell-based; design: Emax: dose or concentration left out as unconfirmed; details: for Emax / Emax at 1 µM: HEK293, 48 h, read-out: % RMAX: maximum rescuing effect, expressed as percentage of the effect of SM3(LD24) at the same concentration; for IC50: HEK293, read-out: IC50 (rescuing dose at 50%)
naive HEK293 cells = test: Intrinsic toxicity in naive HEK293 cells (MTT); format: cell-based; details: 8-point dose-response curve, 48 h
Text: FIG. 3. Dose-response analysis of selected compounds. (A) Chemical structures of the selected molecules are shown in panel. (B) A dose-response analysis using the DBCA was employed to evaluate the anti-ΔCR PrP effects of the different molecules. The graphs show a quantification of the dose-dependent, rescuing effect of each molecule. Average values were obtained from a minimum of 3 independent experiments (n≥3), and expressed as a percentage of cell viability in untreated cells. Data were fitted to a sigmoidal function using a 4-parameter logistic (4PL) non-linear regression model, allowing the estimation of the half-maximal inhibitory concentration (IC50). (C) The intrinsic toxicity of each compound was evaluated in naive HEK293 cells, exposed to each molecule/concentration for 48 h at 37° C. Cytotoxicity was evaluated by MTT. Average values were obtained from a minimum of 3 independent experiments (n≥3), and expressed as a percentage of cell viability in untreated cells. Data were fitted to an inverse sigmoidal function using a 4PL non-linear regression model, allowing the estimation of the half-maximal toxicity dose (LD50).
The DBCA was performed as described previously^24, with minor modifications. Briefly, HEK293 cells expressing ΔCR PrP were cultured at ˜60% confluence in 24-well plates on day 1. On day 2, cells were treated with 500 μg/mL of Zeocinfor. Medium (containing fresh Zeocin and/or compound or vehicle) was replaced every 24 hr. On day 5, cell medium was removed and cells were incubated with 1 mg/mL of 3-(4,5-dimethylthiazol-2-yl)-2,5-diphenyltetrazolium bromide (MTT, Sigma Aldrich, St. Louis, MO) in PBS for 30 min at 37° C. MTT was carefully removed, and cells were re-suspended in 500 μL of DMSO. Values for each well were obtained by measuring at 570 nm, using a plate spectrophotometer (Biotek).

M1000 prion strain = tested on: M1000 prion strain; design: species or system mouse; details: slices treated with M1000 prion lysate
cDC2 = format: cell-based, mouse
[2] = tested on: primary hippocampal neurons; format: cell-based, mouse
[3] = molecular target: T1, full-length human recombinant PrPC (Homo sapiens, UniProt P04156); details: cited from earlier work
Fyn kinase = format: cell-based, mouse
[4] = mouse, in vivo
[5] = molecular target: T1, full-length human recombinant PrPC; format: binding; details: 0.1-1000 μM, highest concentration 1 mM
PrPC [6] = format: cell-based, mouse; details: especially in DC2
PrPC [7] = details: HEK293 WT PrPC, 48 hours
DC2 = format: cell-based, mouse
FXR = format: cell-based, mouse
in vitro = details: rat, microsomes

| Compound | Emax [1] [%] | IC50 [1] [µM] | LD50 (lethal dose at 50%) (naive HEK293 cells) [µM] | further results |
| --- | --- | --- | --- | --- |
| CCC(CC)NC(=O)CN1c2ccc(C(F)(F)F)cc2-c2ccc(F)cc2S1(=O)=O [SM884, N-(1-Ethylpropyl)-2-[3-fluoro-5,5-dioxido-9-(trifluoromethyl)-6H-dibenzo[c,e][1,2]thiazin-6-yl]acetamide] | 211 | 0.018 | >100 | rescue of long-term potentiation (LTP) (M1000 prion strain; 0.03 μM): 71%; rescue of long-term potentiation (LTP) (M1000 prion strain; 0.1 μM): 34% |
| O=C(CN1c2ccc(C(F)(F)F)cc2-c2ccc(F)cc2S1(=O)=O)NC1CCCCC1 [SM882, N-cyclohexyl-2-(3-fluoro-5,5-dioxido-9-(trifluoromethyl)-6H-dibenzo[c,e][1,2]thiazin-6-yl)acetamide] | 139 | 0.044 | >100 |  |
| O=C(CN1c2ccc(Br)cc2-c2ccccc2S1(=O)=O)NC1CCCCC1 [SM3, 2-(9-Bromo-5,5-dioxido-6H-dibenzo[c,e][1,2]thiazin-6-yl)-N-cyclohexylacetamide, reference compound] | 100 | 1.1 | >100 |  |
| O=C(CN1c2ccc(C(F)(F)F)cc2-c2ccccc2S1(=O)=O)NC(CCO)CCO [SM887, 2-[5,5-dioxido-9-(trifluoromethyl)-6H-dibenzo[c,e][1,2]thiazin-6-yl]-N-[3-hydroxy-1-(2-hydroxyethyl)propyl]acetamide] |  |  |  | antigen-specific CD4+ T cell proliferation after cDC2 treatment (cDC2): significantly affected; Emax at 1 µM [1]: ~50% |
| O=C(CN1c2ccc(C(F)(F)F)cc2-c2ccc(F)cc2S1(=O)=O)NC1CCOCC1 [SM885, 2-[3-Fluoro-5,5-dioxido-9-(trifluoromethyl)-6H-dibenzo[c,e][1,2]thiazin-6-yl]-N-(tetrahydro-2H-pyran-4-yl)acetamide] | 123 | 0.053 | >100 |  |
| O=C(CN1c2cccc(Br)c2-c2ccccc2S1(=O)=O)NC1CCCCC1 [SM229, 2-(10-bromo-5,5-dioxido-6H-dibenzo[c,e][1,2]thiazin-6-yl)-N-cyclohexylacetamide] | 121 | 0.25 | 28.21 |  |
| Fe(III)-TMPyP [reference compound] |  |  |  | effect on Aβ-induced decrease of post-synaptic markers (GluN2A, GluN2B, GluA1, GluA2, PSD-95) [2]: rescued; affinity for PrPC, previously reported [3]: high; effect on Aβ-induced Fyn phosphorylation (Fyn kinase): prevented; EAE clinical score / disease severity [4]: ameliorate EAE severity |
| CCOc1ccc2c(c1)S(=O)(=O)N(CC(=O)NC1CCCCC1)c1ccc(C(F)(F)F)cc1-2 [SM883, N-cyclohexyl-2-(3-ethoxy-5,5-dioxido-9-(trifluoromethyl)-6H-dibenzo[c,e][1,2]thiazin-6-yl)acetamide] | 166 | 0.014 | >100 |  |
| O=C(CN1c2ccc(C(F)(F)F)cc2-c2ccc(F)cc2S1(=O)=O)NC(CCO)CCO [SM888, 2-[3-Fluoro-5,5-dioxido-9-(trifluoromethyl)-6H-dibenzo[c,e][1,2]thiazin-6-yl]-N-[3-hydroxy-1-(2-hydroxyethyl)propyl]acetamide] |  |  |  | antigen-specific CD4+ T cell proliferation after cDC2 treatment (cDC2): suppress antigen-specific CD4+ T cell proliferation; Emax at 1 µM [1]: ~50% |
| CCC(CN(C)C)NC(=O)CN1c2ccc(C(F)(F)F)cc2-c2ccc(F)cc2S1(=O)=O (centres unmarked) [SM889, N-{1-[(dimethylamino)methyl]propyl}-2-[3-fluoro-5,5-dioxido-9-(trifluoromethyl)-6H-dibenzo[c,e][1,2]thiazin-6-yl]acetamide] |  |  |  | antigen-specific CD4+ T cell proliferation after cDC2 treatment (cDC2): suppress antigen-specific CD4+ T cell proliferation; Emax at 1 µM [1]: ~50% |
| O=C(CN1c2ccc(C(F)(F)F)cc2-c2ccccc2S1(=O)=O)NC1CCCCC1 [SM231, N-cyclohexyl-2-[5,5-dioxido-9-(trifluoromethyl)-6H-dibenzo[c,e][1,2]thiazin-6-yl]acetamide] | 140 | 0.14 | 22.4 | binding to recombinant PrPC by DMR [5]: no interaction was observed; PrPC level in DC1 and DC2 (PrPC [6]): slightly increases; total PrPC expression (PrPC [7]): no difference in PrPC expression was found; effect on Aβ-induced decrease of post-synaptic markers (GluN2A, GluN2B, GluA1, GluA2, PSD-95) [2]: significantly rescued the levels of all the post-synaptic markers; expansion of FoxP3+ LAP+ Treg cells by treated DC2 (DC2): favor the expansion of T cells expressing Treg cell markers FoxP3 and LAP; FXR transcriptional activity (FXR, Nr0b2 mRNA) (FXR): promoted significant FXR transcriptional activity; effect on Aβ-induced Fyn phosphorylation (Fyn kinase): completely abrogated Aβ effects; EAE clinical score / disease severity [4]: reduced disease as compared to control mice; secretion of IL-17A and GM-CSF by CD4+ T cells from cervical lymph nodes re-stimulated with MOG [4]: reduced secretion of inflammatory cytokines; white matter demyelination and inflammatory infiltrates [4]: reduced; half-life (in vitro): 25 min |
| O=C(CN1c2ccc(C(F)(F)F)cc2-c2ccc(F)cc2S1(=O)=O)NN1CCOCC1 [SM881, 2-[3-Fluoro-5,5-dioxido-9-(trifluoromethyl)-6H-dibenzo[c,e][1,2]thiazin-6-yl]-N-morpholin-4-ylacetamide] | 150 | 0.032 | >100 |  |
| O=C(CN1c2cc(Br)ccc2-c2ccccc2S1(=O)=O)NC1CCCCC1 [SM228, 2-(8-Bromo-5,5-dioxido-6H-dibenzo[c,e][1,2]thiazin-6-yl)-N-cyclohexylacetamide] | 123 | 0.21 | 37.46 |  |
